The nature of data set [1]: Metabolic stability in golden Syrian hamster liver microsomes assessed as drug metabolism at 0.5 uM incubated for 30 mins in presence of NADPH. Format: ADME, Mesocricetus auratus. Particulars: read-out: Drug metabolism. (In general: Liver microsomes are vesicles of endoplasmic reticulum, rich in cytochrome P450 enzymes.)
The nature of data set [2]: Metabolic stability in CD1 mouse liver microsomes assessed as drug metabolism at 0.5 uM incubated for 30 mins in presence of NADPH. The following applies: read-out: Drug metabolism. Format: ADME.
The nature of data set [3]: Cmax in Swiss Albino mouse at 50 mg/kg, po by LC-MS/MS method. The following applies: in vivo. The class given is ADME, organism-based. Set-up: dose 50 mg/kg, route oral.
A short description of data set [4]: Tmax in Swiss Albino mouse at 50 mg/kg, po by LC-MS/MS method. Particulars: in vivo. Format: ADME, organism-based.
The nature of data set [5]: AUClast in Swiss Albino mouse at 50 mg/kg, po by LC-MS/MS method. Set-up: dose 50 mg/kg, time 0 - last, route oral. The following applies: in vivo. The class given is ADME, organism-based.
Data set [6] in a line: Tmax in Swiss Albino mouse at 25 mg/kg, po by LC-MS/MS method. Format: ADME, organism-based. The following applies: in vivo.
Data set [7] in a line: Cmax in Swiss Albino mouse at 1 mg/kg, iv by LC-MS/MS method. The class given is ADME, organism-based. Also noted: dose 1 mg/kg, route intravenous. Particulars: in vivo.
The nature of data set [8]: Cmax in Swiss Albino mouse at 25 mg/kg, po by LC-MS/MS method. Particulars: in vivo. Also noted: dose 25 mg/kg, route oral. Format: ADME, organism-based.
A short description of data set [9]: AUClast in Swiss Albino mouse at 1 mg/kg, iv by LC-MS/MS method. Format: ADME, organism-based. Also noted: dose 1 mg/kg, route intravenous, time 0 - last. Particulars: in vivo.
Data set [10] can be described thus: AUClast in Swiss Albino mouse at 25 mg/kg, po by LC-MS/MS method. The class given is ADME, organism-based. Set-up: dose 25 mg/kg, route oral, time 0 - last. The following applies: in vivo.
Data set [11] in a line: AUC (infinity) in Swiss Albino mouse at 25 mg/kg, po by LC-MS/MS method. The class given is ADME, organism-based. Also noted: dose 25 mg/kg, time infinity, route oral. Particulars: in vivo.
Data set [12] can be described thus: AUC (infinity) in Swiss Albino mouse at 1 mg/kg, iv by LC-MS/MS method. The class given is ADME, organism-based. The following applies: in vivo. Also noted: dose 1 mg/kg, time infinity, route intravenous.
Data set [13] in a line: Terminal half-life in Swiss Albino mouse at 1 mg/kg, iv by LC-MS/MS method. The class given is ADME, organism-based. The following applies: in vivo, read-out: beta t1/2 (converted).
The nature of data set [14]: Clearance in Swiss Albino mouse at 1 mg/kg, iv by LC-MS/MS method. Format: ADME, organism-based. Particulars: in vivo, read-out: CLH.
Data set [15] in a line: Volume of distribution at steady state in Swiss Albino mouse at 1 mg/kg, iv by LC-MS/MS method. Format: ADME, organism-based. The following applies: in vivo, read-out: Vdss.
The nature of data set [16]: Oral bioavailability in Swiss Albino mouse at 1 mg/kg by LC-MS/MS method. Format: ADME, organism-based. Particulars: in vivo.

SMILES strings stand for the structures.

By Cmax is commonly meant the peak of the concentration-time curve. In general, Tmax refers to the time from dosing to the highest level. What is called AUC(0-t) is the area under the concentration-time curve up to a stated or last time point. For orientation: AUC(0-inf) means total exposure, with the tail of the curve extrapolated. A low value points to less exposure. A word on the bioavailability: it is the share of a dose that reaches the circulation, judged against a reference dose that is usually intravenous. Lower therefore signals poor availability.

Regarding `Clc1ccc(Nc2nc(-c3ncccn3)cs2)nc1`, the metabolised at 0.5 h, 0.5 µM was determined as 100% in data set [1] and 99% in data set [2].
For `Cc1ccc(Nc2nc(-c3ccccn3)cs2)nc1`, in that order: 100% and 100%.
The corresponding values for `COc1ccc(Nc2nc(-c3ccccn3)cs2)cc1` are 100% and 100%.
With `Cc1ccc(Nc2nc(-c3ccccn3)cs2)cc1`, the metabolised at 0.5 h, 0.5 µM in [1] and in data set [2] was 100% in each case. For the same compound, in [3], the concentration peaked (Cmax) at 108 ng/mL. Besides, the Tmax in [4] came out at 15 min. The compound also had an AUC(0-t) in data set [5] of 99.8 ng·h/mL.
Turning to `CCOc1ccc(-c2csc(Nc3ccc(Cl)cn3)n2)nc1`, the metabolised at 0.5 h, 0.5 µM was 10% in data set [1] and 62% in data set [2]. For the same compound, the Tmax in data set [6] is 15 min. In addition, the Cmax in [7] came to 885 ng/mL; in data set [8] it was 167 ng/mL. For the same compound, the results for the AUC(0-t) in data set [9] and in data set [10] were 178 ng·h/mL and 362 ng·h/mL, respectively. The AUC(0-inf) in data set [11] was found to be 377 ng·h/mL; in data set [12] it was 183 ng·h/mL. For the same compound, in data set [13], the half-life was 28.8 min. In addition, the clearance in [14] turned out to be 91 mL/min/kg. The Vd in data set [15] is 1.99 L/kg. Besides, the bioavailability in data set [16] is 8%.
On to `COc1ccnc(-c2csc(Nc3ccc(Cl)cn3)n2)c1`, for which the metabolised at 0.5 h, 0.5 µM turned out to be 100% in [1] and 97% in data set [2].
The corresponding values for `Clc1ccc(Nc2nc(-c3ccccn3)c(Cl)s2)nc1` are 100% and 93%.
Turning to `COc1ccc(Nc2nc(-c3cccnc3)cs2)cc1`, the metabolised at 0.5 h, 0.5 µM in [1] and in data set [2] was 96% throughout.
In the case of `FC(F)(F)c1ccc(-c2nc(Nc3ccc(Cl)cn3)sc2Cl)nc1`, the metabolised at 0.5 h, 0.5 µM in [1] was 63%; in data set [2], 30%.
Turning to `c1ccc(-c2csc(Nc3ccc4c(c3)OCCO4)n2)nc1`, the results for the metabolised at 0.5 h, 0.5 µM in data set [1] and in data set [2] were 100% and 99%, respectively.
The corresponding values for `COc1ccc(Nc2nc(-c3ccccn3)cs2)nc1` are 99% and 100%.
For `COc1ccc(Nc2nc(-c3ccncc3)cs2)cc1`, in that order: 98% and 83%.
For `COc1ccc(Nc2nc(-c3ccccn3)cs2)cc1OC`, in that order: 100% and 100%.
`CN(C)c1ccc(Nc2nc(-c3ccccn3)cs2)cc1`: the metabolised at 0.5 h, 0.5 µM was 99% in [1] and 98% in data set [2].
For `COc1ccc(-c2nc(Nc3ccc(Cl)cn3)sc2Cl)nc1`, in that order: 100% and 92%.
With `Cc1ccc(Nc2nc(-c3ccccn3)cs2)cc1C`, the metabolised at 0.5 h, 0.5 µM in data set [1] and in data set [2] was 100% throughout.
Consider `Clc1ccc(Nc2nc(-c3ccccn3)cs2)nc1`, for which the metabolised at 0.5 h, 0.5 µM in data set [1] and in data set [2] was 100% each time.
`Cc1cccc(Nc2nc(-c3ccccn3)cs2)n1`: the metabolised at 0.5 h, 0.5 µM in [1] and in data set [2] was 100% each time.
As for `Clc1ccc(Nc2nc(-n3cccn3)cs2)nc1`, the metabolised at 0.5 h, 0.5 µM in data set [1] and in data set [2] was 100% throughout.
With `Cc1cccnc1Nc1nc(-c2ccccn2)cs1`, the metabolised at 0.5 h, 0.5 µM in data set [1] and in data set [2] was 100% each time.
Take `c1ccc(Nc2nc(-c3ccccn3)cs2)nc1`: the metabolised at 0.5 h, 0.5 µM in [1] and in [2] was 100% throughout.
Consider `Clc1ccc(Nc2nc(-c3ncccn3)c(Cl)s2)nc1`, for which the metabolised at 0.5 h, 0.5 µM in data set [1] was determined as 99%; in data set [2] it was 71%.
For `Cc1ccnc(Nc2nc(-c3ccccn3)cs2)c1`, in that order: 99% and 99%.
For `COc1cccc(-c2csc(Nc3ccc(Cl)cn3)n2)n1`, in that order: 100% and 75%.
For `FC(F)(F)c1ccc(-c2csc(Nc3ccc(Cl)cn3)n2)nc1`, in that order: 98% and 63%.
For `CCOc1ccc(-c2nc(Nc3ccc(Cl)cn3)sc2Cl)nc1`, the values for the metabolised at 0.5 h, 0.5 µM in data set [1] and in data set [2] were 87% and 56%, respectively.
For `Clc1ccc(Nc2nc(-c3cccnn3)cs2)nc1`, in that order: 99% and 95%.
The corresponding values for `COc1ccnc(-c2nc(Nc3ccc(Cl)cn3)sc2Cl)c1` are 100% and 90%.
For `Clc1ccc(Nc2nc(-c3cnccn3)cs2)nc1`, in that order: 99% and 99%.
Regarding `COc1ccc(-c2csc(Nc3ccc(Cl)cn3)n2)nc1`, the metabolised at 0.5 h, 0.5 µM is 100% in [1] and 97% in [2].
For `COc1ccc(Nc2nc(-c3ncccn3)cs2)cc1`, in that order: 81% and 99%.
For `Clc1ccc(Nc2nc(-c3cnccn3)c(Cl)s2)nc1`, in that order: 78% and 47%.
With `Clc1ccc(Nc2nc(-c3cccnn3)c(Cl)s2)nc1`, the metabolised at 0.5 h, 0.5 µM in [1] is 99%; in data set [2], 70%.

The values above are taken from ChEMBL document CHEMBL3621138, “Aminothiazoles: Hit to lead development to identify antileishmanial agents” (Eur J Med Chem, 2015).
